Results from patent publication US20220264910A1, “COMPOSITIONS COMPRISING AMINO ACIDS AND A FURTHER COMPONENT FOR THE SUPPLY OF AMINO ACIDS TO A MONOGASTRIC ANIMAL SUCH AS A HUMAN OR A PIG” (VETAGRO INTERNATIONAL S.R.L., priority 2019, published 2022).

Conditions: pig, in vivo, po

Row | Compound | presence of the marker in the various intestinal tracts
1 | C/C=C/C=C/C(=O)O [sorbic acid] | present in the various intestinal tracts only when administered in encapsulated form in the lipid matrix
2 | COc1cc(C=O)ccc1O [vanillin] | present in the various intestinal tracts only when administered in encapsulated form in the lipid matrix
